From patent US20030153475A1, “Composition for treating contact lenses” (priority 2001, published 2003)

Target: T1, hen egg lysozyme (Gallus gallus, UniProt P00698)
T1 construct: from tissue; host or cells: hen egg
Experiment: lysozyme denaturation/stabilization test: lysozyme activity on M. luteus suspension, optical density at 450nm
Type: biochemical
Settings: Table 1, saline + 20 mM buffering agent
Experimental: Each solution included saline and 20 mM of buffering agent as specified in Table 1 below. To each test solution was added 1 mg/ml of hen egg lysozyme as well as a phosphate buffered saline (PBS) control. The test solutions were mixed slowly with a stir bar until the lysozyme was incorporated into the solutions. Five ml of each lysozyme-containing test solution was retained as the unheated control. The remaining 5 ml of each lysozyme-containing test solution were placed in glass less vials, capped with silicone stoppers and incubated in a shaking water bath at 80° C. 40 revolutions per minute (rpm) for 1 hour—these heating conditions are sufficient to denature the lysozyme, absent a stabilization effect provided by the buffering agents. The vials were allowed to come to ambient temperature before testing. A 0.00025 g/ml suspension of M. luteus was prepared from lyophilized cells in PBS. The suspension was continually mixed on a stir plate during the testing period to prevent the suspension from settling. For each set of test solutions, the following were tested (sample): a heated lysozyme-containing test solution (“lysozyme+heat”); an unheated lysozyme-containing test solution (“lysozyme/no heat”; and a test solution without lysozyme (“no lysozyme”). One ml of each sample was placed into a glass test tube to which 9 ml of M. luteus suspension was added and vortexed. A 1-ml sub sample was placed into a disposable cuvette and evaluated on a UV-vis spectrophotometer at 450nm. […] Each of the solutions were evaluated in triplicate. Each of the three optical density measurements from the triplicate samples were averaged.

[1] = lysozyme + heat (80° C., 1 hour)
[2] = lysozyme/no heat, 1 mg/ml lysozyme

T1 sequence (P00698 19-147): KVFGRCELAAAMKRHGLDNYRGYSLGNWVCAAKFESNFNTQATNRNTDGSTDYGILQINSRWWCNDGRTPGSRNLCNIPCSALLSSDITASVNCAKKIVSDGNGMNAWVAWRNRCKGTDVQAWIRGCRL

Compound | Time 0 Min (optical density, 450nm) [1] | Percent Change 5 Min [1] [%] | Time 5 Min (optical density, 450nm) [1] | Percent Change 10 Min [1] [%] | Time 10 Min (optical density, 450nm) [1] | Time 0 Min (optical density, 450nm) [2] | Percent Change 5 Min (lysozyme/no heat) [%] | Time 5 Min (optical density, 450nm) (lysozyme/no heat) | Percent Change 10 Min (lysozyme/no heat) [%] | Time 10 Min (optical density, 450nm) (lysozyme/no heat) | Time 0 Min (optical density, 450nm) (no lysozyme) | Percent Change 5 Min (no lysozyme) [%] | Time 5 Min (optical density, 450nm) (no lysozyme) | Percent Change 10 Min (no lysozyme) [%] | Time 10 Min (optical density, 450nm) (no lysozyme)
Phosphate | 0.861 | 0.34 | 0.858 | 1.05 | 0.852 | 0.634 | 91.80 | 0.052 | 95.43 | 0.029 | 0.856 | 0.47 | 0.852 | 0.23 | 0.854
Borate | 0.872 | 21.90 | 0.681 | 55.28 | 0.390 | 0.619 | 91.44 | 0.053 | 94.51 | 0.034 | 0.853 | 0.00 | 0.853 | −0.12 | 0.854
O=C(O)CC(O)(CC(=O)O)C(=O)O [Citrate] | 0.877 | 2.96 | 0.851 | 10.49 | 0.785 | 0.654 | 92.51 | 0.049 | 95.41 | 0.030 | 0.857 | 0.82 | 0.850 | 0.82 | 0.850
NC(CO)(CO)CO [Tris, 2-amino-2-hydroxymethyl-1,3-propanediol] | 0.810 | 80.99 | 0.154 | 85.56 | 0.117 | 0.654 | 92.66 | 0.048 | 95.72 | 0.028 | 0.859 | 0.58 | 0.854 | 0.58 | 0.854
